Test results reported in patent US10800733B2, “Acetophenone compound, preparation method therefor, and application thereof in blood lipid regulation” (Shanghai Bioenergy Medicine Science & Technology Co., Ltd., priority 2017, dated 2020).

Test system: hyperlipidemia of SD rats
Test: Therapeutic effect on hyperlipidemia of SD rats (lipid emulsion model)
Format: in vivo
Details: for HDL-C (high density lipoprotein) / LDL-C (low density lipoprotein) / TG (serum triglyceride) / CHO (serum cholesterol): 21 days of continuous administration with lipid emulsion, fasted 12 h, serum, X ± SD, 5 animals per group; for blood lipid-reducing effect (in words) / reduction ratio of cholesterol (blood lipid-reducing effect): 21 days; for blood lipid-reducing effect (in words): hyperlipidemic SD rats, as shown by Table 1; for reduction ratio of cholesterol (blood lipid-reducing effect): (CHO of Model group - CHO of pharmaceutical-administrated group)/CHO of Model group*100%
Protocol: 1. Therapeutic Effect on Hyperlipidemia of SD Rats
Preparation process of lipid emulsion: 500 g of lard oil was taken, placed in a container, and heated to melt. When the temperature rose to 100° C., 200 g of cholesterol was added. After complete dissolution, 20 g of propylthiouracil was further added. The resulted mixture was stirred well, and added with 500 ml of Tween 80 after dissolution, resulting in an oil phase. At the same time, 600 mL of distilled water and 400 mL of 1,2-propanediol were taken and heated to 60° C. in a water bath, and then was added with 40 g of sodium deoxycholate. The resulted mixture was stirred well until complete dissolution was achieved, so as to give an aqueous phase. The aqueous phase was added into the oil phase and mixed well to give a lipid emulsion.
Process for modeling: Animals were fed adaptively for 3 days. Then, according to the body weight, 5 animals were selected as control and the remaining animals were intragastrically administered with the lipid emulsion during 9:00 to 11:00 am every day with 1 mL/100 g body weight for 2 weeks. After fasted for 12 hours, 1 mL of blood was collected from the orbits of the animals, and was determined by Hitachi Automatic Biochemical Analyzer 7080 for serum cholesterol (CHO), triglyceride (TG), low density lipoprotein (LDL-C) and high density lipoprotein (HDL-C). The animals having 4-7 mmol/L of CHO were used in the experiments.
The animals were continued with the intragastric administration of the lipid emulsion, and at the same time, the pharmaceutical-administered groups were administrated with the corresponding doses of pharmaceuticals, while the Model group was administrated with an equal volume of the solvent. The animals were administrated with the lipid emulsion in the morning and pharmaceuticals in the afternoon. The animals were measured for the body weight every Monday, and were observed. After 21 days of continuous administration, the animals were fasted for 12 hours. Then, 1 mL of blood was collected from the orbits, and was determined by Hitachi Automated Biochemical Analyzer 7080 for serum cholesterol (CHO), triglyceride (TG), low density lipoprotein (LDL-C) and high density lipoprotein (HDL-C).
The controls used in this experiment comprised Compound A and Simvastatin (also referred to as Sim herein).
The formula for calculating the blood lipid-reducing effect is: (CHO of Model group —CHO of pharmaceutical-administrated group)/CHO of Model group*100%. […] In this experiment, the effects of the compounds obtained herein for regulating blood lipids can be determined by using the blood cholesterol reduction as the main indicator, with reference to the decrease of triglyceride.

Structure (SMILES)	HDL-C (high density lipoprotein) (80 mg/kg) [mmol/L]	LDL-C (low density lipoprotein) (80 mg/kg) [mmol/L]	TG (serum triglyceride) (80 mg/kg) [mmol/L]	blood lipid-reducing effect (in words) (80 mg/kg)	reduction ratio of cholesterol (blood lipid-reducing effect) (80 mg/kg) [%]	CHO (serum cholesterol) (80 mg/kg) [mmol/L]	CHO (serum cholesterol) (10 mg/kg) [mmol/L]	HDL-C (high density lipoprotein) (10 mg/kg) [mmol/L]	LDL-C (low density lipoprotein) (10 mg/kg) [mmol/L]	TG (serum triglyceride) (10 mg/kg) [mmol/L]
CC(=O)c1ccc(NC(=O)C(C)(C)CCCOc2cc(C)ccc2C)cc1 [Compound 01]	2.02 ± 0.27	3.07 ± 1.25	0.47 ± 0.27	significantly reduce the level of cholesterol	59.75	–	–	–	–	–
CC(=O)c1ccc(O)c(NC(=O)C(C)(C)CCCOc2cc(C)ccc2C)c1 [Compound 02]	1.94 ± 0.49	3.18 ± 0.71	0.51 ± 0.19	significantly reduce the level of cholesterol	54.40	4.86 ± 1.08	–	–	–	–
CC(=O)c1ccc(O)c(NC(=O)c2cccnc2)c1 [Compound 03]	1.81 ± 0.27	3.14 ± 1.06	0.71 ± 0.16	significantly reduce the level of cholesterol	57.22	4.56 ± 1.24	–	–	–	–
CC(=O)c1ccc(NC(=O)C(C)(C)Oc2ccc(Cl)cc2)cc1 [Compound 04]	2.00 ± 0.52	3.27 ± 1.34	0.50 ± 0.15	significantly reduce the level of cholesterol	54.03	4.90 ± 1.09	–	–	–	–
CC(=O)c1ccc(O)c(OC(=O)c2cccnc2)c1 [Compound 05]	1.95 ± 0.50	3.12 ± 0.34	0.56 ± 0.23	significantly reduce the level of cholesterol	56.56	4.63 ± 0.41	–	–	–	–
Cc1ccc(C)c(OCCCC(C)(C)C(=O)NCC(=O)c2ccc(O)cc2)c1 [Compound A, reference compound]	1.41 ± 0.28	4.97 ± 1.07	0.58 ± 0.11	–	42.30	6.15 ± 2.12	–	–	–	–
CCC(C)(C)C(=O)O[C@H]1C[C@@H](C)C=C2C=C[C@H](C)[C@H](CC[C@@H]3C[C@@H](O)CC(=O)O3)[C@H]21 [Sim, Simvastatin, reference compound]	–	–	–	–	–	–	6.28 ± 0.76	1.65 ± 0.26	4.54 ± 0.36	0.60 ± 0.07
